Reference: US6828450B2, “Triptycene analogs” (Kansas State University Research Foundation, priority 2000, dated 2004)
Like-named read-outs stand apart in the source and are kept apart here. Blank lines part the entries; values can stand above or below the molecule they belong to.

How the values were obtained:
[1] = biological target: Malaria protease plasmepsin II (Plasmodium falciparum, UniProt P46925); test: Inhibition of malaria protease plasmepsin II; assay type: biochemical
HL-60-R8 cells = test: Nucleoside transport in HL-60-R8 cells; assay type: cell-based, human; settings: 15-min preincubation, 30 s
From the text: (§1) FIG. 15. Comparison of the concentration-dependent inhibitions of the cellular transport of purine (A) and pyrimidine (B) nucleosides by DAU (open symbols) and TT2 (closed symbols) in HL-60-S (circles), HL-60-RV (squares) and HL-60-R8 (triangles) cells in vitro. Results are expressed as % of ^3H-adenosine (26,032±2,239 cpm, 100±9%, striped area in A) and ^3H-thymidine (17,934±1,398 cpm, 100±8%, striped area in B) transported into vehicle-treated control cells over 30 s.
The MDR HL-60-RV and HL-60-R8 cells were developed in Melvin S. Center's laboratory (Kansas State University) and similarly maintained in RPMI 1640 medium in the absence of drugs (Marsh W, et al, Cancer Res 46: 4053-4057, 1986; McGrath T et al, and Center M S: Biochem Biophys Res Commun 145: 1171-1176, 1987; Marsh W and Center M S: Cancer Res 47: 5080-5086, 1987; McGrath T, et al, Biochem Pharmacol 38: 3611-3619, 1989; Marquardt D, et al, Cancer Res 50: 1426-1430, 1990; Marquardt D and Center M S: J Natl Cancer Inst 83: 1089-1109, 1991; Krishnamachary N and Center M S; Cancer Res 53: 3658-3661, 1993). Every 4 weeks, these HL-60-RV and HL-60-R8 sublines were exposed to 41 nM DAU for 48 h to stabilize their MDR phenotype. […] RFs were determined by dividing the IC50 of the MDR cells by that of the sensitive WT parent cell line. […]

HL-60-S cells = test: Nucleoside transport in HL-60-S cells; assay type: cell-based, human; settings: for IC50: 15-min preincubation, 30 s
From the text: as §1
The MDR HL-60-RV and HL-60-R8 cells were developed in Melvin S. Center's laboratory (Kansas State University) and similarly maintained in RPMI 1640 medium in the absence of drugs (Marsh W, et al, Cancer Res 46: 4053-4057, 1986; McGrath T et al, and Center M S: Biochem Biophys Res Commun 145: 1171-1176, 1987; Marsh W and Center M S: Cancer Res 47: 5080-5086, 1987; McGrath T, et al, Biochem Pharmacol 38: 3611-3619, 1989; Marquardt D, et al, Cancer Res 50: 1426-1430, 1990; Marquardt D and Center M S: J Natl Cancer Inst 83: 1089-1109, 1991; Krishnamachary N and Center M S; Cancer Res 53: 3658-3661, 1993). Every 4 weeks, these HL-60-RV and HL-60-R8 sublines were exposed to 41 nM DAU for 48 h to stabilize their MDR phenotype. This concentration of DAU, which is not cytotoxic to MDR HL-60 sublines, was removed from the culture medium at least 48 h before experimentation. […] RFs were determined by dividing the IC50 of the MDR cells by that of the sensitive WT parent cell line.
L1210 cells (about 1.5×10^6 cells/0.5 ml) were preincubated for 15 min at 37° C. in the presence or absence of TTs and then exposed to 1 μCi of ^3H-thymidine for only 30 sec to assess the cellular uptake of nucleoside over such very short period of time. […] Cell lysates were mixed with 9 ml of Bio-Safe II (Researeh Products International) and counted to estimate the cellular uptake of ^3H-thymidine. Drug inhibition was expressed as % of ^3H-thymidine or ^3H-adenosine transported into vehicle-treated control cells over similar 30-sec period.

Malaria protease plasmepsin II, sequence (P46925 125-453): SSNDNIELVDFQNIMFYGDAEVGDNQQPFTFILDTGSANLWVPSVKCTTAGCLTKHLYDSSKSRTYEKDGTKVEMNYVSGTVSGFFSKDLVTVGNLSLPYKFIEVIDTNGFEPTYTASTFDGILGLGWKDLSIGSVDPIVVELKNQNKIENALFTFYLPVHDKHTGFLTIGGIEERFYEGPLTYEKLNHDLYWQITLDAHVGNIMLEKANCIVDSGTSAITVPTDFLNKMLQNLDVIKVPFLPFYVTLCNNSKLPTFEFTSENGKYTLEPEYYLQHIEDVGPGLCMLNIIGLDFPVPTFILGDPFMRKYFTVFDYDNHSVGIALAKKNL

IC50 [1]: 23.6 µM
Compound: COC1=C(Br)C(=O)C2=C(C1=O)C1C3=C(C(=O)C=C(N(C)C)C3=O)C2c2ccccc21 (stereo not drawn) [TT16, 2-Bromo-3-methoxy-6-(dimethylamino)-9,10-dihydro-9,10-[1′,2′]benzenoanthracene-1,4,5,8-tetraone]

IC50 (HL-60-R8 cells; purine nucleoside, read-out: IC50, cellular transport of 3H-adenosine in HL-60-R8 cells): 3.7 µM
IC50 (HL-60-R8 cells; pyrimidine nucleoside, read-out: IC50, cellular transport of 3H-thymidine in HL-60-R8 cells): 2.3 µM
IC50 (HL-60-S cells; purine nucleoside, read-out: IC50, cellular transport of 3H-adenosine in HL-60-S cells): 3.3 µM
IC50 (HL-60-S cells; pyrimidine nucleoside, read-out: IC50, cellular transport of 3H-thymidine in HL-60-S cells): 2 µM
Compound: COC1=CC(=O)C2=C(C1=O)C1C3=C(C(=O)C=CC3=O)C2c2ccccc21 (stereo not drawn) [TT2, 2-Methoxy-9,10-dihydro-9,10-[1′,2′]benzenoanthracene-1,4,5,8-tetraone]

Compound: COc1cccc2c1C(=O)c1c(O)c3c(c(O)c1C2=O)C[C@@](O)(C(C)=O)C[C@@H]3O[C@H]1C[C@H](N)[C@H](O)[C@H](C)O1 [DAU, daunomycin, reference compound]
effect on nucleoside transport in WT HL-60-S cells (HL-60-S cells): fails to significantly inhibit
